Organism: Rattus norvegicus
Assay: Open TG-GATES - Regimen: Single
Format: toxicity, organism-based, Sprague-Dawley
Design: regimen Single, gender Male, age 6 weeks
Details: in vivo, po, route gavage; for APTT / Bas / Eos / Fbg / Hb / Ht / Lym / MCH / MCHC / MCV / Mono / Neu / PT / Plat / RBC / Ret / WBC: tissue Blood; for KIDNEY_L / KIDNEY_R / KIDNEY_TOTAL: tissue Kidney; for LIVER: tissue Liver; for A/G / ALP / ALT / AST / BUN / CRE / Ca / Cl / DBIL / GLC / IP / K / LDH / Na / PL / RALB / TBIL / TC / TG / TP / gamma-GTP: tissue Plasma
[1] = 50 mg/kg, 3 h, dose level Middle
[2] = 50 mg/kg, 6 h, dose level Middle
[3] = 50 mg/kg, 9 h, dose level Middle
[4] = 50 mg/kg, 24 h, dose level Middle
[5] = 150 mg/kg, 3 h, dose level High
[6] = 150 mg/kg, 6 h, dose level High
[7] = 150 mg/kg, 9 h, dose level High
[8] = 150 mg/kg, 24 h, dose level High

## CN(C)CCC=C1c2ccccc2CCc2ccccc21 [AMITRIPTYLINE]
[1]
  TERMINAL_BW: 194.1 g
  APTT: 16.5 s
  Bas: 0.4%
  Eos: 1%
  Fbg: 273 mg/dL
  Hb: 13.2 g/dL
  Ht: 41.1%
  Lym: 74%
  MCH: 21.1 pg
  MCHC: 32.2%
  MCV: 65.4 fL
  Mono: 3.4%
  Neu: 20.4%
  PT: 15.8 s
  Plat: 128.6 x10_4/uL
  RBC: 629.2 x10_4/ul
  Ret: 9.2%
  WBC: 102.1 x10_2/uL
  KIDNEY_L: 0.9 g
  KIDNEY_R: 0.9 g
  KIDNEY_TOTAL: 1.7 g
  LIVER: 8.7 g
  A/G: 0.8
  ALP: 1574.4 IU/L
  ALT: 62.8 IU/L
  AST: 79 IU/L
  BUN: 8 mg/dL
  CRE: 0.2 mg/dL
  Ca: 11 mg/dL
  Cl: 107.8 meq/L
  DBIL: 0.012 mg/dL
  GLC: 192.8 mg/dL
  IP: 9.3 mg/dL
  K: 4.2 meq/L
  LDH: 90.8 IU/L
  Na: 144.2 meq/L
  PL: 143.2 mg/dL
  RALB: 2.5 g/dL
  TBIL: 0.062 mg/dL
  TC: 78.8 mg/dL
  TG: 42.8 mg/dL
  TP: 5.5 g/dL
  gamma-GTP: 0.8 IU/L
[2]
  TERMINAL_BW: 191.7 g
  APTT: 15.9 s
  Bas: 0.4%
  Eos: 1%
  Fbg: 283 mg/dL
  Hb: 13.1 g/dL
  Ht: 40.7%
  Lym: 72.6%
  MCH: 20.9 pg
  MCHC: 32.4%
  MCV: 64.7 fL
  Mono: 3%
  Neu: 22.4%
  PT: 15.9 s
  Plat: 117.4 x10_4/uL
  RBC: 629.4 x10_4/ul
  Ret: 9.3%
  WBC: 84.5 x10_2/uL
  KIDNEY_L: 0.9 g
  KIDNEY_R: 0.9 g
  KIDNEY_TOTAL: 1.8 g
  LIVER: 7.9 g
  A/G: 0.9
  ALP: 1530.6 IU/L
  ALT: 47 IU/L
  AST: 76.4 IU/L
  BUN: 6.8 mg/dL
  CRE: 0.1 mg/dL
  Ca: 10.7 mg/dL
  Cl: 106.8 meq/L
  DBIL: 0.006 mg/dL
  GLC: 179.2 mg/dL
  IP: 9.9 mg/dL
  K: 4.1 meq/L
  LDH: 65.4 IU/L
  Na: 143.4 meq/L
  PL: 138.2 mg/dL
  RALB: 2.5 g/dL
  TBIL: 0.07 mg/dL
  TC: 81.2 mg/dL
  TG: 34.8 mg/dL
  TP: 5.5 g/dL
  gamma-GTP: 0.8 IU/L
[3]
  TERMINAL_BW: 188 g
  APTT: 16.3 s
  Bas: 0%
  Eos: 1%
  Fbg: 282.6 mg/dL
  Hb: 13.2 g/dL
  Ht: 40.4%
  Lym: 74%
  MCH: 21.1 pg
  MCHC: 32.7%
  MCV: 64.5 fL
  Mono: 2.2%
  Neu: 22%
  PT: 15.7 s
  Plat: 117.9 x10_4/uL
  RBC: 626.2 x10_4/ul
  Ret: 8.6%
  WBC: 86.3 x10_2/uL
  KIDNEY_L: 0.8 g
  KIDNEY_R: 0.8 g
  KIDNEY_TOTAL: 1.6 g
  LIVER: 7.4 g
  A/G: 0.9
  ALP: 1395.8 IU/L
  ALT: 42.4 IU/L
  AST: 73.8 IU/L
  BUN: 8 mg/dL
  CRE: 0.1 mg/dL
  Ca: 10.8 mg/dL
  Cl: 107.2 meq/L
  DBIL: 0.014 mg/dL
  GLC: 170.2 mg/dL
  IP: 9.9 mg/dL
  K: 4.2 meq/L
  LDH: 72.8 IU/L
  Na: 142.4 meq/L
  PL: 143.4 mg/dL
  RALB: 2.5 g/dL
  TBIL: 0.062 mg/dL
  TC: 79.2 mg/dL
  TG: 49.8 mg/dL
  TP: 5.4 g/dL
  gamma-GTP: 1 IU/L
[4]
  TERMINAL_BW: 205.9 g
  APTT: 16.7 s
  Bas: 0.2%
  Eos: 1%
  Fbg: 268 mg/dL
  Hb: 13.1 g/dL
  Ht: 39.8%
  Lym: 79.2%
  MCH: 21.1 pg
  MCHC: 32.8%
  MCV: 64.4 fL
  Mono: 2.6%
  Neu: 16.2%
  PT: 16.4 s
  Plat: 117.1 x10_4/uL
  RBC: 618.8 x10_4/ul
  Ret: 8.8%
  WBC: 101.4 x10_2/uL
  KIDNEY_L: 0.9 g
  KIDNEY_R: 0.9 g
  KIDNEY_TOTAL: 1.7 g
  LIVER: 9.2 g
  A/G: 0.8
  ALP: 1528.4 IU/L
  ALT: 49.8 IU/L
  AST: 72.6 IU/L
  BUN: 14.2 mg/dL
  CRE: 0.2 mg/dL
  Ca: 11 mg/dL
  Cl: 105.2 meq/L
  DBIL: 0.018 mg/dL
  GLC: 181.6 mg/dL
  IP: 7.1 mg/dL
  K: 4.3 meq/L
  LDH: 69.2 IU/L
  Na: 142.6 meq/L
  PL: 153 mg/dL
  RALB: 2.6 g/dL
  TBIL: 0.056 mg/dL
  TC: 82.6 mg/dL
  TG: 97.8 mg/dL
  TP: 5.6 g/dL
  gamma-GTP: 0.2 IU/L
[5]
  TERMINAL_BW: 193.9 g
  APTT: 15.9 s
  Bas: 0.2%
  Eos: 0.4%
  Fbg: 285.6 mg/dL
  Hb: 13.4 g/dL
  Ht: 41.6%
  Lym: 75%
  MCH: 20.9 pg
  MCHC: 32.1%
  MCV: 65 fL
  Mono: 3.2%
  Neu: 20.4%
  PT: 16 s
  Plat: 120.6 x10_4/uL
  RBC: 641.4 x10_4/ul
  Ret: 9.3%
  WBC: 71.3 x10_2/uL
  KIDNEY_L: 0.9 g
  KIDNEY_R: 0.9 g
  KIDNEY_TOTAL: 1.7 g
  LIVER: 8.5 g
  A/G: 0.8
  ALP: 1527.2 IU/L
  ALT: 53.2 IU/L
  AST: 74.6 IU/L
  BUN: 7.8 mg/dL
  CRE: 0.2 mg/dL
  Ca: 10.9 mg/dL
  Cl: 107.4 meq/L
  DBIL: 0.006 mg/dL
  GLC: 188 mg/dL
  IP: 9.9 mg/dL
  K: 4.3 meq/L
  LDH: 67.4 IU/L
  Na: 145.6 meq/L
  PL: 138.8 mg/dL
  RALB: 2.5 g/dL
  TBIL: 0.058 mg/dL
  TC: 77 mg/dL
  TG: 40.6 mg/dL
  TP: 5.5 g/dL
  gamma-GTP: 0.8 IU/L
[6]
  TERMINAL_BW: 191.7 g
  APTT: 16.4 s
  Bas: 0%
  Eos: 0.6%
  Fbg: 273.8 mg/dL
  Hb: 12.7 g/dL
  Ht: 39.3%
  Lym: 74%
  MCH: 20.9 pg
  MCHC: 32.3%
  MCV: 64.6 fL
  Mono: 3.2%
  Neu: 21.2%
  PT: 15.7 s
  Plat: 123.7 x10_4/uL
  RBC: 610.2 x10_4/ul
  Ret: 9.3%
  WBC: 89.4 x10_2/uL
  KIDNEY_L: 0.8 g
  KIDNEY_R: 0.8 g
  KIDNEY_TOTAL: 1.6 g
  LIVER: 7.8 g
  A/G: 0.9
  ALP: 1508.6 IU/L
  ALT: 50.4 IU/L
  AST: 71 IU/L
  BUN: 7.4 mg/dL
  CRE: 0.1 mg/dL
  Ca: 10.7 mg/dL
  Cl: 108.2 meq/L
  DBIL: 0.004 mg/dL
  GLC: 179.6 mg/dL
  IP: 9.9 mg/dL
  K: 4.4 meq/L
  LDH: 57.4 IU/L
  Na: 143.4 meq/L
  PL: 149.6 mg/dL
  RALB: 2.5 g/dL
  TBIL: 0.058 mg/dL
  TC: 85.6 mg/dL
  TG: 28.8 mg/dL
  TP: 5.4 g/dL
  gamma-GTP: 0.6 IU/L
[7]
  TERMINAL_BW: 193.2 g
  APTT: 15.6 s
  Bas: 0%
  Eos: 0.8%
  Fbg: 305.8 mg/dL
  Hb: 13.1 g/dL
  Ht: 40.5%
  Lym: 65.4%
  MCH: 21 pg
  MCHC: 32.4%
  MCV: 64.8 fL
  Mono: 2.6%
  Neu: 30.2%
  PT: 15.6 s
  Plat: 125.8 x10_4/uL
  RBC: 625.2 x10_4/ul
  Ret: 9.1%
  WBC: 70.1 x10_2/uL
  KIDNEY_L: 0.8 g
  KIDNEY_R: 0.8 g
  KIDNEY_TOTAL: 1.7 g
  LIVER: 7.7 g
  A/G: 0.8
  ALP: 1542.6 IU/L
  ALT: 44.8 IU/L
  AST: 68.6 IU/L
  BUN: 7 mg/dL
  CRE: 0.1 mg/dL
  Ca: 10.8 mg/dL
  Cl: 107 meq/L
  DBIL: 0.01 mg/dL
  GLC: 193.4 mg/dL
  IP: 10.7 mg/dL
  K: 4.1 meq/L
  LDH: 82.4 IU/L
  Na: 143.4 meq/L
  PL: 142 mg/dL
  RALB: 2.5 g/dL
  TBIL: 0.06 mg/dL
  TC: 80.8 mg/dL
  TG: 42.2 mg/dL
  TP: 5.5 g/dL
  gamma-GTP: 1 IU/L
[8]
  TERMINAL_BW: 191.9 g
  APTT: 16.6 s
  Bas: 0.2%
  Eos: 1.2%
  Fbg: 277.4 mg/dL
  Hb: 13.6 g/dL
  Ht: 41.4%
  Lym: 80.4%
  MCH: 20.9 pg
  MCHC: 32.8%
  MCV: 63.7 fL
  Mono: 3%
  Neu: 14.6%
  PT: 17 s
  Plat: 123.6 x10_4/uL
  RBC: 649.6 x10_4/ul
  Ret: 8.1%
  WBC: 79.1 x10_2/uL
  KIDNEY_L: 0.9 g
  KIDNEY_R: 0.9 g
  KIDNEY_TOTAL: 1.8 g
  LIVER: 7.6 g
  A/G: 0.8
  ALP: 1505.6 IU/L
  ALT: 40.4 IU/L
  AST: 63 IU/L
  BUN: 13.8 mg/dL
  CRE: 0.2 mg/dL
  Ca: 10.9 mg/dL
  Cl: 105 meq/L
  DBIL: 0.016 mg/dL
  GLC: 182.6 mg/dL
  IP: 8.7 mg/dL
  K: 4.4 meq/L
  LDH: 58 IU/L
  Na: 142.2 meq/L
  PL: 133 mg/dL
  RALB: 2.5 g/dL
  TBIL: 0.062 mg/dL
  TC: 78.8 mg/dL
  TG: 47.8 mg/dL
  TP: 5.6 g/dL
  gamma-GTP: 1 IU/L

Source: ChEMBL document CHEMBL3885861, “Open TG-GATES”
